Reference: ChEMBL document CHEMBL4673187, “Recent developments of small molecule gamma-secretase modulators for Alzheimer''s disease” (RSC Med Chem, 2020)
Values belong to the molecule of their own block, whether it stands above or below them.

Tests used:
[1] = Lipophilicity, logD of the compound; assay type: physicochemical; details: octanol/water
[2] = Inhibition of notch signalling (unknown origin); parameters: species or system Homo sapiens
[3] = In vivo modulation of gamma secretase in C57BL/6 mouse assessed as reduction in amyloid beta42 level at 10 mg/kg, po measured at 3 hrs relative to control; assay type: functional; parameters: scale not given: the % may be the effect or the level left
[4] = In vivo modulation of gamma secretase in transgenic Tg2576 C57BL/6 mouse assessed as reduction in amyloid beta42 level at 30 mg/kg, po administered as single dose measured after 4 hrs by ELISA relative to control; assay type: functional; parameters: scale not given: the % may be the effect or the level left
[5] = In vivo modulation of gamma secretase in transgenic Tg2576 C57BL/6 mouse assessed as reduction in amyloid beta42 level at 10 mg/kg, po administered as single dose measured after 4 hrs by ELISA relative to control; assay type: functional; parameters: scale not given: the % may be the effect or the level left
[6] = Modulation of gamma secretase in Wistar rat fetal brain-derived neuronal cell incubated for 3 days by ELISA; details: 72 h
[7] = In vivo modulation of gamma secretase in C57BL/6 mouse assessed as reduction in amyloid beta42 level at 30 mg/kg, po measured at 3 hrs relative to control; assay type: functional; parameters: scale not given: the % may be the effect or the level left
Gamma-secretase [8] = experiment: Modulation of gamma-secretase in human H4 cells expressing human APP assessed as reduction in amyloid beta42 level incubated for 22 hrs; assay type: cell-based
[9] = Ratio of drug level in CF1 mouse brain to plasma at 3 to 100 mg/kg, po measured after 4 hrs by liquid chromatography and tandem mass spectrometry; assay type: ADME, organism-based; details: dose 3-100 mg/kg, read-out: BPR
[10] = In vivo modulation of gamma secretase in CF1 mouse assessed as increase in brain amyloid beta38 level at 100 mg/kg, po measured after 4 hrs by ELISA relative to control; assay type: functional
[11] = In vivo modulation of gamma secretase in transgenic Tg2576 mouse assessed as reduction in soluble amyloid beta42 level at 60 mg/kg, po administered once daily for 65 days by ELISA relative to control; assay type: functional; parameters: scale not given: the % may be the effect or the level left; details: time 65 day
[12] = In vivo modulation of gamma secretase in CF1 mouse assessed as reduction in plasma amyloid beta42 level at 100 mg/kg, po measured after 4 hrs by ELISA relative to control; assay type: functional; parameters: scale not given: the % may be the effect or the level left
[13] = In vivo modulation of gamma secretase in transgenic Tg2576 mouse assessed as reduction in insoluble amyloid beta42 level at 60 mg/kg, po administered once daily for 65 days by ELISA relative to control; assay type: functional; parameters: scale not given: the % may be the effect or the level left; details: time 65 day
[14] = Modulation of gamma-secretase in CHO cells expressing APP V717F assessed as increase in amyloid beta38 level; assay type: cell-based; details: Cricetulus griseus
[15] = In vivo modulation of gamma secretase in CF1 mouse assessed as reduction in brain amyloid beta40 level at 100 mg/kg, po measured after 4 hrs by ELISA relative to control; assay type: functional; parameters: scale not given: the % may be the effect or the level left
[16] = In vivo modulation of gamma secretase in CF1 mouse assessed as reduction in brain amyloid beta42 level at 100 mg/kg, po measured after 4 hrs by ELISA relative to control; assay type: functional; parameters: scale not given: the % may be the effect or the level left
[17] = In vivo modulation of gamma secretase in CF1 mouse assessed as reduction in plasma amyloid beta40 level at 100 mg/kg, po measured after 4 hrs by ELISA relative to control; assay type: functional; parameters: scale not given: the % may be the effect or the level left
[18] = In vivo modulation of gamma secretase in CF1 mouse assessed as reduction in amyloid beta42 level at 10 mg/kg, po administered as single dose measured after 4 hrs by ELISA relative to control; assay type: functional; parameters: scale not given: the % may be the effect or the level left
[19] = Modulation of gamma-secretase in CHO cells expressing APP V717F assessed as reduction in amyloid beta42 level; assay type: cell-based; details: Cricetulus griseus
Gamma-secretase [20] = experiment: Modulation of gamma-secretase in human H4 cells expressing human wild type APP751 assessed as increase in amyloid beta38 level incubated for 17 hrs by ELISA; assay type: cell-based
Gamma-secretase [21] = experiment: Modulation of gamma-secretase in human H4 cells expressing human wild type APP751 assessed as reduction in amyloid beta42 level incubated for 17 hrs by ELISA; assay type: cell-based
[22] = Maximum concentration of drug in po dosed CF1 mouse brain and measured at 4 hrs by liquid chromatography and tandem mass spectrometry; assay type: ADME, organism-based; parameters: route oral, time 4 hrs
[23] = In vivo modulation of gamma secretase in CF1 mouse assessed as increase in amyloid beta38 level at 10 mg/kg, po administered as single dose measured after 16 hrs by ELISA relative to control; assay type: functional
[24] = In vivo modulation of gamma secretase in CF1 mouse assessed as increase in plasma amyloid beta38 level at 100 mg/kg, po measured after 4 hrs by ELISA relative to control; assay type: functional

logD [1]: 3.2
SMILES: COc1cc(-c2nnc3n2CCC[C@@]3(Oc2cc(F)c(F)c(F)c2)C(C)(C)O)ccc1-c1cnc(C)o1

IC50 [2]: ≥ 10 µM
logD [1]: 3.2
SMILES: COc1cc(-c2nnc3n2CCC[C@]3(Oc2cc(F)c(F)c(F)c2)C(C)(C)O)ccc1-c1cnc(C)o1
Activity [3]: 44%

SMILES: O=C(O)[C@H](CC1CCC1)c1cc(Cl)c(OCC(F)(F)F)c(-c2ccc(C(F)(F)F)cc2)c1
Activity [4]: 38%
Activity [5]: 22%

logD [1]: 3.2
SMILES: COc1cc(-c2nnc3n2CCCC3(Oc2ccc(F)c(Cl)c2)C(C)(C)O)ccc1-c1cnc(C)o1 (stereo not given)

IC50 [6]: 93 nM
SMILES: COc1cc(/C=C2\CCCN([C@@H](C)c3ccc(F)cc3)C2=O)ccc1-n1cnc(C)c1

logD [1]: 2.8
SMILES: COc1cc(-c2nnc3n2CCCC32OCc3c(Cl)cccc3N(CC(F)(F)F)C2=O)ccc1-c1cnc(C)o1 (stereo not given)

logD [1]: 3
SMILES: COc1cc(-c2nnc3n2CCCC3(Cc2ccc(F)c(F)c2)C(=O)NCC(F)(F)F)ccc1-c1cnc(C)o1 (stereo not given)
Activity [7]: 4%

logD [1]: 3.2
SMILES: COc1cc(-c2nnc3n2CCCC3c2ccc(Cl)c(Cl)c2)ccc1-c1cnc(C)o1 (stereo not given)

IC50 (Gamma-secretase [8]): 143 nM
SMILES: Cc1nsc(N2CCC(Nc3nc4c(-c5ccc(F)c(F)c5F)cccn4n3)C(F)(F)C2)n1 (stereo not given)

logD [1]: 2.9
SMILES: COc1cc(-c2nnc3n2CCCC32OCc3c(cccc3C(F)(F)F)N(CC(F)(F)F)C2=O)ccc1-c1cnc(C)o1 (stereo not given)

Kp at 4 h [9]: 0.8
EC50 [14]: 150 nM
IC50 [19]: 170 nM
EC50 (Gamma-secretase [20]): 146 nM
IC50 (Gamma-secretase [21]): 64 nM
Cmax [22]: 7.5 µM
SMILES: CC1CCN([C@H](c2ccc(F)cc2)c2ccc([C@@H](C)C(=O)O)cc2-c2ccc(C(F)(F)F)cc2)CC1
Activity [10]: 98%
Activity [11]: 50%
Activity [12]: 45%
Activity [13]: 80%
Activity [15]: 16%
Activity [16]: 60%
Activity [17]: 25%
Activity [18]: 40%
Activity [23]: 50%
Activity [24]: 82%
